{"source": "patent US12497614B2", "about": "“Compositions and methods for editing beta-globin for treatment of hemaglobinopathies” (Vertex Pharmaceuticals Incorporated, priority 2020, dated 2025)", "molecules": {"B1": {"name": "T107 gRNA: intron-targeting gRNA, spacer SEQ ID NO: 3, sgRNA SEQ ID NO: 4 (nucleic acid)", "guide": "mU*mC*mC*rArCrArUrGrCrCrCrArGrUrUrUrCrUrArUrGrUrUrUrUrArGrArGrCrUrArGrArArArUrArGrCrArArGrUrUrArArArArUrArArGrGrCrUrArGrUrCrCrGrUrUrArUrCrArArCrUrUrGrArArArArArGrUrGrGrCrArCrCrGrArGrUrCrGrGrUrGrCmU*mU*mU*rU"}, "B2": {"name": "R02 gRNA: exon-targeting gRNA for exon 1 of HBB, spacer SEQ ID NO: 14, sgRNA SEQ ID NO: 15 (nucleic acid)", "guide": "mC*mU*mU*rGrCrCrCrCrArCrArGrGrGrCrArGrUrArArGrUrUrUrUrArGrArGrCrUrArGrArArArUrArGrCrArArGrUrUrArArArArUrArArGrGrCrUrArGrUrCrCrGrUrUrArUrCrArArCrUrUrGrArArArArArGrUrGrGrCrArCrCrGrArGrUrCrGrGrUrGrCmU*mU*mU*rU"}, "B3": {"name": "T223 gRNA: intron-targeting gRNA, spacer SEQ ID NO: 51, sgRNA SEQ ID NO: 52 (nucleic acid)", "guide": "mU*mA*mA*rGrGrArGrArCrCrArArUrArGrArArArCrUrGrUrUrUrUrArGrArGrCrUrArGrArArArUrArGrCrArArGrUrUrArArArArUrArArGrGrCrUrArGrUrCrCrGrUrUrArUrCrArArCrUrUrGrArArArArArGrUrGrGrCrArCrCrGrArGrUrCrGrGrUrGrCmU*mU*mU*rU"}}, "key": {"[1]": {"test_system": "HBB gene locus in CD34+ HSPCs", "experiment": "HDR efficiency with DNA-PK inhibitors for editing the HBB gene in CD34+ HSPCs; NGS (Example 4)", "format": "cell-based, human", "settings": "for % HDR / % INDELs: 48 hours", "method": "The cells were transduced with AAV donor template for 1 hour at 37° C. prior to electroporation. AAV-encoded homology donor template referred to as “AAV.310”, which is identified by sequence in Table 8. The AAV.310 donor template encodes a SCD mutation, specifically valine at the 6th codon downstream the HBB start codon (E6V). The cells were treated with AAV at a dose of 10,000 MOI.\nEdited cells were evaluated for viability using trypan blue, and for incorporation of gene-edits at 2 days post-electroporation. The efficiency of HDR repair for introducing an E6V mutation in the HBB gene was quantified by NGS assay as described in Example 1, and the frequency of INDELs induced at the T107 cut site was also evaluated by NGS analysis.\nThe INDELs species identified in edited cells were further evaluated to determine frequency of repair by NHEJ or MMEJ repair pathways. An INDEL of ±1 nt was considered due to NHEJ repair; a deletion of −9 nt was considered due to MMEJ repair based on the microhomology present on either side of the T107 cut site. Based on percentage of total reads corresponding to these INDEL species, the ratio of gene edits due to NHEJ and MMEJ repair was evaluated. […] Thus, reduced frequency of INDELs with treatment of compound 296 or i53 is largely due to suppression of the NHEJ repair pathway."}, "[2]": {"test_system": "CD34+ HSPCs", "experiment": "Cell growth and viability (trypan blue) of edited CD34+ HSPCs during differentiation (Example 5)", "settings": "day 0 to day 18 post-editing; inhibitor 1 or 3 μM, i53 1 μg mRNA; data not shown", "method": "Briefly, frozen CD34+ HSPCs isolated from Plerixafor mobilized peripheral blood, obtained from healthy human donors were thawed. The cells were seeded in CD34 cell media at a cell density of 2×10^5 cells/mL. Cells were cultured at 37° C. under normoxic conditions (i.e., oxygen 20%). Gene-editing was performed following two days of in vitro culture. For editing, 5×10^5 CD34+ HSPCs were electroporated with RNP containing 200 μg/ml Cas9 and 200 μg/ml T107 sgRNA. […] The cells were transduced with AAV.310, 1 hour prior to electroporation, at a dose of 10,000 MOI. The cells were plated in CD34 cell medium containing Compound 296 or Compound 984 immediately following the electroporation, at a concentration of 1 μM or 3 μM for 48 hours. […] Post electroporation cells were resuspended in CD34 cell medium at a density of 2-5×10^5 cells/ml and incubated at 37° C. for 48 hours.\nFollowing editing, cells were differentiated to erythrocytes. Briefly, cells were plated in fresh CD34 media at a density of 2×10^5 cells/mL, and re-plated at similar density in fresh CD34 media on days 3 and 5 post-editing. On day 7 and 10 post-editing, the cells were incubated in Phase II media at a density of 2.5×10^5 and 1×10^6 cells/mL respectively. On day 12 post-editing, the cells were incubated in Phase III media at a density of 1×10^6 cells/mL. On day 14 cells were plated at a density of 2×10^6 cells/ml in Phase III media and maintained till day 18 at 37° C. Cell growth was measured at various time points between day 0 and day 18 post-editing, and the percentage of viable cells was measured by staining with tryphan blue."}, "[3]": {"test_system": "HBB gene locus and mRNA transcribed from HBB in CD34+ HSPCs", "experiment": "Editing efficiency in genomic DNA and in HBB mRNA (Example 5)", "format": "cell-based, human", "settings": "genomic DNA, 48 hours post electroporation; 1 μM or 3 μM", "method": "At 48 hours post electroporation genomic DNA was isolated from the edited cells and HDR to introduce the sickle mutation and INDEL frequencies were evaluated using next gene sequencing and computational analysis. On day 10 of differentiation, incorporation of the SCD mutation and frequency of INDELs present in mRNA transcribed from the HBB gene locus of edited cells was determined using RNA amplicon sequencing."}, "[4]": {"test_system": "CD34+ HSPCs", "experiment": "Globin and hemoglobin analysis by HPLC on day 18 of differentiation (Example 5)", "format": "cell-based, human", "settings": "T107 RNP+AAV.310 alone or combined with the inhibitor", "method": "(§1) Following editing, cells were differentiated to erythrocytes.\nAdditionally, on day 18 post-editing, expression of globin monomers was assessed in differentiated cells by HPLC as described in Example 3. […] Accordingly, the editing was sufficient to both introduce the SCD mutation in HBB and result in expression of sickle globin.\nFurthermore, production of hemoglobin tetramers was also evaluated by HPLC. The analysis included quantification of HbS tetramer containing sickle-globin (α2β(E6V)2), HbF tetramer (α2γ2), HbA (α2β2), and HbA2 (α2δ2) produced by edited cells. […] Thus, the editing was also sufficient to alter hemoglobin output following in vitro differentiation."}, "[5]": {"test_system": "CD34+ HSPCs", "experiment": "Erythrocyte functionality: enucleation and cell-surface markers by flow cytometry (Example 5)", "format": "cell-based, human", "settings": "T107 RNP+AAV.310 alone or combined with the inhibitor", "method": "as §1\nThe ability of edited cells to differentiate to functional erythrocytes was assessed by determining expression of erythrocyte-associated cell surface markers and enucleation using flow cytometry on day 12 and 18 post editing. Briefly, 4×10^5 cells were obtained, and half were stained for erythrocyte cell-surface markers and half were used for detection of enucleation. For staining cell-surface markers, the cells were incubated in PBS containing 1% human serum albumin (PBS-A) and an antibody cocktail of anti-CD233(BRIC6-Band3)-FITC, anti-CD71-PE, anti-CD235a(GlyA)-PE/Cy7, and anti-CD49d (α4)-VioBlue. For detection of enucleation, 2 drops of NucRed nuclear staining reagent was added to 1 mL PBS-A, and 100 μL was added to plated cells. Following incubation, both cell samples were labeled with Sytox Blue solution (1:1000 dilution in PBS-A) for live/dead analysis. Samples were then assessed by flow cytometry"}, "[6]": {"test_system": "HBB gene in CD34+ HSPCs", "experiment": "Comparison of guides targeting intron 1 of HBB with AAV donor templates (Example 8)", "format": "cell-based, human", "settings": "with each of AAV.309, AAV.310, AAV.311; day 2 post-editing", "method": "Healthy donor CD34+ HSPCs derived from plerixafor-mobilized peripheral blood were cultured as described in Example 1 for two days prior to editing. Editing was performed using 1×10^6 CD34+ HSPCs per treatment group. The cells were electroporated with RNP containing the following 20 μg SpCas9 and 20 μg T107 sgRNA, 20 μg T223 sgRNA, or 20 μg R02 sgRNA. […] The cells were transduced with AAV6 donor templates encoding a SCD mutation (AAV.309; AAV.310; AAV.311) by incubating the cells with AAV at a dose of 10,000 MOI for one hour prior to electroporation. Control cells were transduced with AAV only and electroporated in the absence of RNP.\nOn day 2 post-editing, the efficiency of HDR repair for inducing a SCD mutation in the HBB gene was quantified by NGS assay as described in Example 1."}, "[7]": {"test_system": "genomic sites undergoing off-target cleavage", "experiment": "GUIDE-Seq screen of candidate off-target sites", "format": "cell-based, human", "source_text": "The second approach was to screen candidate off-target sites using GUIDE-Seq (see, e.g., Tsai et al (2015) NAT. BIOTECHNOL. 33:187). Based on this approach, the following number of genomic sites were identified as undergoing off-target cleavage per each gRNA: • (i) 36 GUIDE-Seq off-target sites for R02 gRNA; • (ii) 12 GUIDE-Seq off-target sites for […]; and • (iii) 43 GUIDE-Seq off-target sites for T223 gRNA."}, "[8]": {"settings": "T107 RNP + AAV.310 + 0.012 μM compound"}, "[9]": {"settings": "T107 RNP + AAV.310 + 0.037 μM compound"}, "[10]": {"settings": "T107 RNP + AAV.310 + 0.04 μM compound"}, "[11]": {"settings": "T107 RNP + AAV.310 + 3.3 μM compound"}, "[12]": {"settings": "T107 RNP + AAV.310 + 10 μM compound"}}, "note": "Strand notation (5' to 3'): a small letter for the sugar, then the base; units joined by * are phosphorothioate-linked, units joined directly phosphodiester-linked; [ ] holds rarer units or linkages, { } end groups; capitals alone tell only the bases. m = 2'-O-methyl; r = 2'-OH (RNA)"}
{"molecule": "CNC(=O)c1ccnc2c([C@H](C)CNc3cc(-c4cnc(C)nc4)ncn3)cccc12", "note": "[Compound 296]", "values": [{"measurement": "% HDR", "setting": "[1]; [8]", "value": 40, "unit": "%"}, {"measurement": "% INDELs", "setting": "[1]; [8]", "value": 45, "unit": "%"}, {"measurement": "% HDR", "setting": "[1]; [9]", "value": 39, "unit": "%"}, {"measurement": "% INDELs", "setting": "[1]; [9]", "value": 46, "unit": "%"}, {"measurement": "% HDR", "setting": "[1]; [10]", "value": 40, "unit": "%"}, {"measurement": "% INDELs", "setting": "[1]; [10]", "value": 42, "unit": "%"}, {"measurement": "% HDR", "setting": "[1]; [11]", "value": 55, "unit": "%"}, {"measurement": "% INDELs", "setting": "[1]; [11]", "value": 27, "unit": "%"}, {"measurement": "% HDR", "setting": "[1]; [12]", "value": 57, "unit": "%"}, {"measurement": "% INDELs", "setting": "[1]; [12]", "value": 25, "unit": "%"}, {"measurement": "reduction of the frequency of INDELs at the T107 cut site compared to control cells", "setting": "[1]; T107 RNP+AAV.310 with DNA-PK inhibitor", "value": "approximately 1.6 fold"}, {"measurement": "INDEL species due to MMEJ repair (deletion of −9 nt)", "setting": "[1]; T107 RNP+AAV.310, Compound 296 at 10 μM, i53 at 1 μg mRNA", "value": "no substantial reduction"}, {"measurement": "decrease in INDELs due to NHEJ repair (INDEL of ±1 nt)", "setting": "[1]; T107 RNP+AAV.310, Compound 296 at 10 μM, i53 at 1 μg mRNA, vs DMSO", "value": "≤ 3", "unit": "fold"}, {"measurement": "cell growth over time or percent viability vs T107 RNP+AAV.310 edited cells", "setting": "[2]", "value": "No difference"}, {"measurement": "frequency of INDELs at the T107 cut site compared to cells edited with T107 RNP+AAV.310 only", "setting": "[3]", "value": "decreased"}, {"measurement": "level of HDR repair compared to cells edited with T107 RNP+AAV.310 only", "setting": "[3]", "value": "increased"}, {"measurement": "HbA production compared to control cells", "setting": "[4]", "value": "decreased"}, {"measurement": "HbS production compared to control cells", "setting": "[4]", "value": "increased"}, {"measurement": "expression of sickle-globin compared to control cells", "setting": "[4]", "value": "increased"}, {"measurement": "levels of enucleation vs control cells", "setting": "[5]", "value": "comparable"}]}
{"molecule": "B1", "values": [{"measurement": "levels of HDR for introducing the SCD mutation", "setting": "[6]", "value": "similar"}, {"measurement": "GUIDE-Seq off-target sites (number)", "setting": "[7]", "value": 12}]}
{"molecule": "B2", "values": [{"measurement": "GUIDE-Seq off-target sites (number)", "setting": "[7]", "value": 36}]}
{"molecule": "B3", "values": [{"measurement": "levels of HDR for introducing the SCD mutation", "setting": "[6]", "value": "similar"}, {"measurement": "GUIDE-Seq off-target sites (number)", "setting": "[7]", "value": 43}]}
